Test results taken from the NIST ThermoML archive (doi:10.1016/j.fluid.2014.07.010).
± gives the expanded uncertainty stated by the source.

Settings: Liquid, Ebulliometric method (Recirculating still)

vapor or sublimation pressure (407.15 K) [kPa] | vapor or sublimation pressure (398.57 K) [kPa] | Structure (SMILES)
101.33 ± 0.46 |  | CCc1cccs1 [2-ethylthiophene]
 | 101.33 ± 0.46 | CCCCCCCC [octane]
